Measurements published in patent US12678423B2, “Therapeutic agent for amyotrophic lateral sclerosis and composition for treatment” (KEIO UNIVERSITY, priority 2016, dated 2026).

Experiments:
Format in all cases: cell-based, human
[1] = tested on: motor neurons induced to differentiate from iPS cells derived from ALS patients (FUS-ALS) having a mutation in FUS; assay: Ectopic localization of FUS protein in the cytoplasm, FUS-ALS motor neurons
Text: Therefore, on day 40 from the start of differentiation induction, each differentiation-induced motor neuron in Example I-1 was immunostained and the localization of FUS protein in the cytoplasm was examined.
(§1) Using the differentiation-induced motor neurons in Example I-1, drugs which cause the ALS phenotype to be restored were screened from existing drug libraries with the neurite length, ectopic localization of FUS protein, stress granule formation, LDH leakage ratio, CV-caspase 3-positive ratio, phosphorylated TDP-43 protein inclusion formation, and the like as indices.
(§2) As a result of the screening, ropinirole was found as a promising therapeutic agent for ALS. Tables 5 and 6 show the improvement ratio (%) in the ALS phenotype due to adding ropinirole to the medium. Here, ropinirole was added to the medium on days 35 to 40 from the start of the differentiation induction of each iPS cell. Here, it is assumed that days 35 to 40 from the start of differentiation induction correspond to the early stage of the ALS disease.
(§3) The improvement ratio (%) of the ALS phenotype was calculated by Equation (1).
(§4) [formula] [In Equation (1), A represents a measurement value of motor neurons induced to differentiate from iPS cells derived from ALS patients in the absence of ropinirole, and B represents a measurement value of motor neurons induced to differentiate from iPS cells derived from ALS patients in the presence of ropinirole, and C represents a measurement value of motor neurons induced to differentiate from iPS cells derived from healthy subjects in the absence of ropinirole.]
(§5) Subsequently, in the same manner as above, the efficacy in cases of administering lower concentrations of ropinirole was evaluated.
(§6) Each drug was added to the medium at a final concentration of 10 μM.

[2] = tested on: motor neurons differentiated from iPS cells derived from 24 patients having sporadic ALS (SALS); assay: CV caspase 3-positive ratio, 24 sporadic ALS patient models (Example III-5); details: final concentration 1 μM for 5 days
Procedure: In the same manner as in Example II-1, iPS cells derived from 24 patients having sporadic ALS (SALS) were differentiated into motor neurons and then ropinirole with a final concentration of 1 μM was added to the medium. In addition, for comparison, a group for which ropinirole was not added to the medium was prepared. In addition, as a control, a group for which iPS cells derived from healthy subjects were differentiated into motor neurons in the same manner as in Example I-1 was used. No ropinirole was added to the medium of these motor neurons. As the iPS cells derived from a healthy subject, the same cells as used in Example I-1 were used.
Below, each differentiated motor neuron is identified by the patient number from whom the neuron was derived.
In all of the motor neurons, the addition period of ropinirole was 5 days. The time to start the addition of ropinirole varied depending on the case and was from day 30 to day 70 from the start of the differentiation induction of each of the iPS cells.
Subsequently, for each motor neuron on day 5 after the addition of ropinirole, the ratio of CV caspase 3-positive neurons was measured in the same manner as in Example I-3.
FIG. 15 is a graph showing the measurement results of the ratio of CV caspase 3-positive neurons. […]

[3] = tested on: motor neurons induced to differentiate from iPS cells derived from ALS patients (TDP-43-ALS) having a mutation in TDP-43; assay: Neurite length in late stage ALS disease, TDP-43-ALS (Example I-9); details: final concentration 1 μM, added days 50 to 62 from start of differentiation induction, FIG. 14
Procedure: The efficacy of ropinirole was evaluated in the same manner as in Example I-8, except that the timing of adding ropinirole was changed to days 50 to 62 from the start of the differentiation induction of each iPS cell. It is assumed that days 50 to 62 after the start of induction of differentiation correspond to the late stage of the ALS disease.
Specifically, ropinirole was added to a medium of motor neurons induced to differentiate from iPS cells derived from ALS patients (FUS-ALS) having a mutation in FUS and motor neurons induced to differentiate from iPS cells derived from ALS patients (TDP-43-ALS) having a mutation in TDP-43 and the changes over time in the neurite length were measured. The measurement of neurite length was carried out in the same manner as in Example I-2. Ropinirole was added to the medium at a final concentration of 1 μM.
FIG. 14(a) is a graph showing the results of measurement of the changes over time in the neurite length of each motor neuron. In FIG. 14(a), the vertical axis represents the neurite length (relative value), the horizontal axis represents the number of days of culturing from the start of differentiation induction, and “+ROPI” represents the result of adding ropinirole to the medium. In addition, FIG. 14(b) is a graph enlarging the boxed portion of the graph of FIG. 14(a). […]

[4] = tested on: motor neurons induced to differentiate from iPS cells derived from ALS patients (TDP-43-ALS) having a mutation in TDP-43; assay: Neurite length, TDP-43-ALS motor neurons (screening, Example I-8)
Procedure: For each differentiation-induced motor neuron in Example I-1, the changes over time in the neurite length were measured. A Bio station CT (Nikon Corp.) was used to measure the neurite length over time. FIG. 1 is a graph showing measurement results of changes over time in the neurite length. The vertical axis represents neurite length (relative value), and the horizontal axis represents the number of days of culturing from the start of differentiation induction.
as §1, §2, §3, §4, §5, §6

[5] = final concentration 0.1 μM, added days 35 to 40
[6] = final concentration 1 μM, added days 35 to 40
[7] = final concentration 10 μM, added days 35 to 40

CCCN(CCC)CCc1cccc2c1CC(=O)N2 [Ropinirole, 4-(2-di-n-propylaminoethyl)-2(3H)-indole]
Ectopic localization of FUS protein improvement ratio ([1]; final concentration 0.1 nM): 20.2% | Ectopic localization of FUS protein improvement ratio ([1]; final concentration 1 nM): 45.8% | Ectopic localization of FUS protein improvement ratio ([1]; final concentration 10 nM): 51.2% | Ectopic localization of FUS protein improvement ratio [1, 5]: 55.8% | Ectopic localization of FUS protein improvement ratio [1, 6]: 54.3% | Ectopic localization of FUS protein improvement ratio [1, 7]: 74.4% | Share of SALS cases in which the increase in CV caspase 3-positive ratio was suppressed ([2]; 16 of 22 cases): 72.73 % of SALS cases | Cases in which the increase in CV caspase 3-positive ratio was suppressed ([2]; among 22 SALS cases with confirmed increase (of 24), FIG. 15): 16 cases | Neurite length (changes over time), late stage [3]: neuroprotective action (maintenance of neurite length) | Neurite length improvement ratio ([4]; final concentration 0.1 nM): 12.1% | Neurite length improvement ratio ([4]; final concentration 1 nM): 49.4% | Neurite length improvement ratio ([4]; final concentration 10 nM): 52.3% | Neurite length improvement ratio [4, 5]: 50.4% | Neurite length improvement ratio [4, 6]: 75.3% | Neurite length improvement ratio [4, 7]: 77.2%
